Source: PubChem BioAssay AID2060485 (Molecular Pharmacology Branch, DTP, NCI, 2025)

Test system: A375 multi-cell spheroids with HUVEC/MSC, viability
Test: Anticancer human tumor A375 cell line growth inhibition [GQUAD];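 note: spheroids exposed to compounds for seven days before readout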
Settings: for IC50: curve of first compound; for viability, T/C: stronger effect = lower value
Excerpt: DNA G-quadruplex Stabilizer Agents in Combinations in Complex Spheroids
A high-throughput screen of multi-cell type tumor spheroids was designed to identify active combinations of DNA G-quadruplex stabilizer agents and targeted small molecules. Complex spheroids include a stromal component modeled by human endothelial cells (HUVEC) and fibroblasts modeled by human mesenchymal stem cells (MSCs). The concentration ranges selected for each drug and investigational agent were based upon clinically achievable concentrations if the clinical Cmax of the agent was known.
Compounds. The drugs and investigational agents: pidnarulex (CX-5461; NSC782164), APTO-253 (NSC789042), BRACO-19 (NSC847499), peposertib (NSC802822), ceralasertib (NSC780249), elimusertib (NSC800525), camonsertib (NSC841442), AZD-1390 (NSC803789), olaparib (NSC753686), talazoparib (NSC767125), ART-558 (NSC835418), sotorasib (NSC818433), MRTX-1133 (NSC836407), SN-38 (NSC673596), topotecan (NSC609699), etoposide (NSC141540), doxorubicin (NSC123127), gemcitabine (NSC613327), 5-fluorouracil (NSC19893), paclitaxel (NSC125973), vemurafenib (NSC761431), panobinostat (NSC761190), R-306465 (JNJ-16241199; NSC773264), adavosertib (NSC754352), TP-3654 (NSC805149), carboplatin (NSC241240), KSQ-4279 (NSC840948), and staurosporine (NSC755774) were obtained from the National Cancer Institute (NCI) Developmental Therapeutics Program Chemical Repository (34). The FDA-approved anticancer drug set is available from the NCI Developmental Therapeutics Program. […] The stock solutions were prepared in dimethyl sulfoxide (DMSO, Sigma-Aldrich, St. Louis, MO, cat. D2650) at 800-fold the tested concentration and stored at -70 degrees C prior to their use. All drugs and investigational agents were tested over a range starting from a high concentration at or near the clinical Cmax and decreasing in half-log increments. If the clinical Cmax for an agent had not been determined, the highest concentration tested was 10 microM.
2.3 Cell Culture. All cells were maintained in an incubator at 37 degrees C and 5% CO2 with 95% humidity. The PDC lines were cultured according to standard operating procedures established by the NCI PDMR. All PDCs were thawed and cultured in Matrigel-coated flasks prepared with a working solution of 1X Ham's F-12 nutrient mix, without supplementation (Invitrogen, cat. 11765054), 100 U/mL penicillin-streptomycin (Invitrogen, cat. 15140122), and 2.5% Matrigel (Corning Inc., cat. 354248) for the first three passages. The 857933-349-R-J2-PDC line was cultured in 6C/Colon 1B media, which includes advanced DMEM/F-12 (Thermo Fisher Scientific, cat. 12634028), 10 mM HEPES (Thermo Fisher Scientific, cat. 15630080), 1X GlutaMAX supplement (Thermo Fisher Scientific, cat. 35050061), 0.1 mg/mL primocin (InvivoGen, cat. ant-pm-2), 10% defined fetal bovine serum, heat inactivated (HyClone Laboratories Inc., cat. SH30070.03HI), 50% L-WRN conditioned media (ATCC, cat. CRL-3276), 1.25 mM N-Acetyl-L-cysteine (Sigma-Aldrich, cat. A9165), 10 mM nicotinamide (Sigma-Aldrich, cat. N0636), 1X B-27 supplement (Thermo Fisher Scientific, cat. 17504044), 1X N-2 supplement (Thermo Fisher Scientific, cat. 17502048), 10 microM Y-27632 dihydrochloride (Tocris Bioscience, cat. 1254), and 50 ng/mL human EGF recombinant protein (Thermo Fisher Scientific, cat. PHG0311). The 485176-168-R4-J1-PDC line was cultured in Panc media, which includes all 6C/Colon 1B media components plus 100 ng/mL human FGF-10 (Thermo Fisher Scientific, cat. 100-26), 500 nM SB-431542 (Selleckchem, cat. S1067), and gastrin (Tocris, cat. 3006).
[…]

[1] = second compound 0.0316 µM, first compound 0.0316 µM
[2] = second compound 0.0316 µM, first compound 0.1 µM
[3] = second compound 0.0316 µM, first compound 0.316 µM
[4] = second compound 0.0316 µM, first compound 1 µM
[5] = second compound 0.0316 µM, first compound 3.16 µM
[6] = second compound 0.0316 µM, first compound 10 µM
[7] = second compound 0.1 µM, first compound 0.0316 µM
[8] = second compound 0.1 µM, first compound 0.1 µM
[9] = second compound 0.1 µM, first compound 0.316 µM
[10] = second compound 0.1 µM, first compound 1 µM
[11] = second compound 0.1 µM, first compound 3.16 µM
[12] = second compound 0.1 µM, first compound 10 µM
[13] = second compound 0.316 µM, first compound 0.0316 µM
[14] = second compound 0.316 µM, first compound 0.1 µM
[15] = second compound 0.316 µM, first compound 0.316 µM
[16] = second compound 0.316 µM, first compound 1 µM
[17] = second compound 0.316 µM, first compound 3.16 µM
[18] = second compound 0.316 µM, first compound 10 µM
[19] = second compound 1 µM, first compound 0.0316 µM
[20] = second compound 1 µM, first compound 0.1 µM
[21] = second compound 1 µM, first compound 0.316 µM
[22] = second compound 1 µM, first compound 1 µM
[23] = second compound 1 µM, first compound 3.16 µM
[24] = second compound 1 µM, first compound 10 µM
[25] = second compound 3.16 µM, first compound 0.0316 µM
[26] = second compound 3.16 µM, first compound 0.1 µM
[27] = second compound 3.16 µM, first compound 0.316 µM
[28] = second compound 3.16 µM, first compound 1 µM
[29] = second compound 3.16 µM, first compound 3.16 µM
[30] = second compound 3.16 µM, first compound 10 µM
[31] = second compound 10 µM, first compound 0.0316 µM
[32] = second compound 10 µM, first compound 0.1 µM
[33] = second compound 10 µM, first compound 0.316 µM
[34] = second compound 10 µM, first compound 1 µM
[35] = second compound 10 µM, first compound 3.16 µM
[36] = second compound 10 µM, first compound 10 µM

C=CC(=O)N1CCN(c2nc(=O)n(-c3c(C)ccnc3C(C)C)c3nc(-c4c(O)cccc4F)c(F)cc23)C(C)C1 (centres undefined) + Cc1cnc(CNC(=O)c2c(=O)c3ccc(N4CCCN(C)CC4)nc3n3c2sc2ccccc23)cn1
IC50 (second compound 0.0316 µM): > 10000 nM
IC50 (second compound 0.1 µM): > 10000 nM
IC50 (second compound 0.316 µM): > 10000 nM
IC50 (second compound 1 µM): < 31.6 nM
IC50 (second compound 3.16 µM): < 31.6 nM
IC50 (second compound 10 µM): < 31.6 nM
viability, T/C [1]: 94.5%
viability, T/C [2]: 103%
viability, T/C [3]: 109%
viability, T/C [4]: 106%
viability, T/C [5]: 145%
viability, T/C [6]: 129%
viability, T/C [7]: 86.7%
viability, T/C [8]: 77.3%
viability, T/C [9]: 92.9%
viability, T/C [10]: 82.3%
viability, T/C [11]: 95%
viability, T/C [12]: 83.2%
viability, T/C [13]: 51.6%
viability, T/C [14]: 56.6%
viability, T/C [15]: 55.4%
viability, T/C [16]: 57%
viability, T/C [17]: 59.2%
viability, T/C [18]: 58%
viability, T/C [19]: 42.4%
viability, T/C [20]: 47.9%
viability, T/C [21]: 48.8%
viability, T/C [22]: 48.6%
viability, T/C [23]: 45.1%
viability, T/C [24]: 40.2%
viability, T/C [25]: 34.9%
viability, T/C [26]: 32.5%
viability, T/C [27]: 32.7%
viability, T/C [28]: 36.4%
viability, T/C [29]: 37.6%
viability, T/C [30]: 34.1%
viability, T/C [31]: 28.8%
viability, T/C [32]: 32.9%
viability, T/C [33]: 33%
viability, T/C [34]: 33.5%
viability, T/C [35]: 31.6%
viability, T/C [36]: 28.5%

CC(=O)O[C@H]1C(=O)[C@@]2(C)[C@H]([C@H](OC(=O)c3ccccc3)[C@]3(O)C[C@H](OC(=O)[C@H](O)[C@@H](NC(=O)c4ccccc4)c4ccccc4)C(C)=C1C3(C)C)[C@]1(OC(C)=O)CO[C@@H]1C[C@@H]2O + Cc1cnc(CNC(=O)c2c(=O)c3ccc(N4CCCN(C)CC4)nc3n3c2sc2ccccc23)cn1
IC50 (second compound 0.0316 µM): 64.2 nM
IC50 (second compound 0.1 µM): 36.1 nM
IC50 (second compound 0.316 µM): < 31.6 nM
IC50 (second compound 1 µM): < 31.6 nM
IC50 (second compound 3.16 µM): < 31.6 nM
IC50 (second compound 10 µM): < 31.6 nM
viability, T/C [1]: 77.3%
viability, T/C [2]: 33%
viability, T/C [3]: 18.5%
viability, T/C [4]: 14.2%
viability, T/C [5]: 14.7%
viability, T/C [6]: 19%
viability, T/C [7]: 53.3%
viability, T/C [8]: 24.9%
viability, T/C [9]: 17.8%
viability, T/C [10]: 21.1%
viability, T/C [11]: 18.1%
viability, T/C [12]: 23.2%
viability, T/C [13]: 40.1%
viability, T/C [14]: 25.9%
viability, T/C [15]: 25.2%
viability, T/C [16]: 21.2%
viability, T/C [17]: 20.1%
viability, T/C [18]: 22.8%
viability, T/C [19]: 35%
viability, T/C [20]: 24.3%
viability, T/C [21]: 26.8%
viability, T/C [22]: 28.2%
viability, T/C [23]: 31%
viability, T/C [24]: 32.1%
viability, T/C [25]: 30.1%
viability, T/C [26]: 23.1%
viability, T/C [27]: 24.4%
viability, T/C [28]: 28.7%
viability, T/C [29]: 28.2%
viability, T/C [30]: 33.7%
viability, T/C [31]: 26.7%
viability, T/C [32]: 23.3%
viability, T/C [33]: 23.5%
viability, T/C [34]: 23.3%
viability, T/C [35]: 26%
viability, T/C [36]: 29.6%
